“Also recorded” adds a separate entry of the source.
What was measured:
[1] = system: human precision cut liver slices (PCLS); experiment: Biomarker secretion from PCLS into culture medium (ELISA); assay type: cell-based; conditions: collagen1α1, fibronectin, hyaluronic acid, IL-6, MCP-1
Procedure: (§1) PCLS were obtained from 5 human donors who underwent resection of liver cancer. Replicate slices were collected from healthy margins of the resections and cultured for 4 or 6 days depending on the experimental protocol. In the Nonstimulation Protocol slices were cultured for 6 days and treated for the entire period with DMSO vehicle or 5 μM CRV431. In the Stimulation Protocol slices were rested for 1 day and then administered the cytokines, TGFβ and PDGF-BB, for 3 days to stimulate inflammation and fibrosis. DMSO vehicle, CRV431 (1 and 5 μM), Alk5i (10 μM), obeticholic acid (5 μM), elafibranor (5 μM), resmetirom (5 μM), and Aramchol (5 μM) were administered individually as drug treatments in the Stimulation Protocol concurrent with TGFβ+PDGF-BB. Culture medium treatments were replaced daily.
(a) Biomarker secretion. Spent culture medium was collected daily from duplicate slices for each treatment. ELISAs were used to quantify secretion of monocyte chemoattractant protein (MCP-1), interleukin-6 (IL-6), tissue inhibitor of metalloproteinase-1 (TIMP1), hyaluronic acid, fibronectin, and collagen 1α1. For each donor the mean level of biomarker secretion in each treatment group was expressed as a percentage change relative to DMSO vehicle, the percentages averaged for all donors, and finally the mean daily percentage change calculated from all days of evaluation. […]

[2] = system: liver tumors (likely hepatocellular carcinoma); experiment: Liver tumor burden in streptozotocin/high-fat diet NASH mice; assay type: in vivo, C57BL/6J male mice
Procedure: NASH was initiated in 2-day-old C57BL/6J male mice by intraperitoneal injection with […] streptozotocin (S0130; Sigma-Aldrich) to disrupt pancreatic β cells, induce diabetes, and promote adiposity in the liver. Mice were weaned at 3 weeks of age and begun on a high-fat diet with 60% kcal fat (D12492N; Research Diets) for the duration of the studies. Additionally, mice with a regular diet (D12450KN; Research Diets) and without streptozotocin were included as negative controls. CRV431 was dissolved in a self-microemulsifying drug vehicle and then diluted with PBS and administered daily by oral gavage at 50 mg/kg per day. The start time and duration of vehicle and CRV431 treatments varied depending on the study.
In two separate experiments, tumor burden at the end of treatment was assessed by the number of tumors (FIGS. 11A and 12A) and a composite score based on the number and size of tumors (0-7 scale; FIGS. 11B and 12B).

[3] = system: fibroblastic cells (IPF lung fibroblasts, cardiac fibroblasts, dermal fibroblasts, renal mesangial cells, LX2 hepatic stellate cell line); experiment: Procollagen and fibronectin (ECM) secretion from fibroblastic cells, ELISA; assay type: cell-based
From the text: For example, as described herein, CRV431 can regulate oncogenes, and have anti-oncogenic activities. CRV431 can decrease production of the extracellular matrix (ECM) molecules, collagen and fibronectin, from fibroblastic cells derived from five cell types, including lung fibroblasts from a patient with idiopathic pulmonary fibrosis (“IPF”), cardiac fibroblasts, dermal (skin) fibroblasts, renal mesangial cells, and the LX2 hepatic stellate cell line. It is known that IPF is an aggressive fibrotic disease in tremendous need of new treatments. […] The extent of inhibition was similar whether or not the cells were stimulated with the profibrotic agent, transforming growth factor-beta (TGFβ), consistent with direct effects on ECM synthesis.

[4] = system: Huh7 hepatocellular carcinoma cells; conditions: 4 days, strongest with 0.37 μM daunorubicin and CRV431 1-4 μM
Procedure: (§2) HepG2 hepatocellular carcinoma cell lines and Huh7 hepatocellular carcinoma cell lines were plated in 96 well plates at subconfluent densities. The chemotherapy compound, daunorubicin, and CRV431 were applied alone or in combination at the indicated concentrations in duplicate wells for each treatment. After 4 days incubation, cell viability was assessed with Cell Titer Glo 2.0.

[5] = system: HepG2 hepatocellular carcinoma cells; conditions: 4 days, strongest with 0.37 μM daunorubicin and CRV431 0.25-4 μM
Procedure: as §2

[6] = system: human precision cut liver slices (PCLS); experiment: Gene expression in PCLS by RT-PCR; assay type: cell-based; conditions: collagen1α1, αSMA, TIMP1, IL-6, MCP-1
Procedure: as §1
(c) Gene expression by RT-PCR. RNA was isolated from duplicate liver slices per treatment at the end of the experiments and evaluated by RT-PCR for 5 markers of inflammation and fibrosis: MCP-1, IL-6, TIMP1, αSMA, and collagen 1α1. β actin was used as a reference gene to calculate relative levels of each target gene RNA. […] Results are shown in FIG. 1C (gene expression by RT-PCR).

[7] = 50 mg/kg per day oral gavage, weeks 20 to 30

CC[C@@H]1NC(=O)[C@H]([C@H](O)[C@H](C)CCCCCCNC(C)=O)N(C)C(=O)[C@H](C(C)C)N(C)C(=O)[C@H](CC(C)C)N(C)C(=O)[C@H](CC(C)C)N(C)C(=O)[C@@H](C)NC(=O)[C@H](C)NC(=O)[C@H](CC(C)C)N(C)C(=O)[C@H](C(C)C)NC(=O)[C@H](CC(C)C)N(C)C(=O)[C@@H](C)N(C)C1=O [CRV431]
secretion of inflammation and fibrosis biomarkers [1]: reduced secretion of collagen1α1, fibronectin, hyaluronic acid, IL-6, and MCP-1; also recorded: decreased the mean daily secretion and gene expression of all markers | decrease of tumor burden (score combining tumor number and size) [2, 7]: 52% | livers lacking tumors [2, 7]: 2 of 10 | number of liver tumors vs vehicle [2, 7]: half the number of tumors | tumor size vs vehicle [2, 7]: smaller tumors on average | Tumor number, mean ([2]; 50 mg/kg/day, end of treatment): 4.80 | Tumor score, mean (0-7 scale) ([2]; 50 mg/kg/day, end of treatment): 2.40 | procollagen and fibronectin secretion ([3]; ELISA, with or without TGFβ stimulation): dose-dependently decreased procollagen and fibronectin secretion from all cell types | cell viability ([3]; clinically relevant concentrations): without causing any reduction in cell viability | decrease of ECM production ([3]; clinically relevant concentrations, collagen and fibronectin): up to 55% | effect on cytotoxicity of daunorubicin [4]: increased the cytotoxicity of daunorubicin | effect on cytotoxicity of daunorubicin [5]: increased the cytotoxicity of daunorubicin | RNA levels of inflammation and fibrosis markers by qRT-PCR [6]: reductions in RNA levels of collagen1α1, αSMA, TIMP1, IL-6, and MCP-1; also recorded: decreased the mean daily secretion and gene expression of all markers

Reference: patent US20210269479A1, “USE OF CY[…] FOR TREATING CANCER” (Hepion Pharmaceuticals, Inc., priority 2020, published 2021)
